What was measured:
4T1 cells [1] = assay: In vitro cellular uptake (flow cytometry, CLSM); format: cell-based, mouse; conditions: 1 µg Ppa mL-1, 2, 6 and 24 h
Experimental: CCK-8 assay. 5×103 L02 normal cells per well were seeded in a 96-well plate, and then treated by Ppa and SSAs for 24 h incubation or PDP for 24 h and 48 h incubation.
Cell viability of each group was obtained through the same process.
1.3.9 In vitro cellular uptake
To determine cellular uptake and intracellular distribution of SSAs, 4T1 cells (2×104) were seeded on each glass coverslip to allow attachment, and incubated with Ppa and PDPP for 1 h, 3 h and 6 h, while Ppa was used as a control. After nuclear staining by Hoechst 33258, cells were washed by PBS and then observed under a confocal laser scanning microscopy (CLSM) (excitation and emission wavelengths:
630 nm and 678 nm), and images were captured by Leica Confocal Software.
For quantitative characterization of uptake of SSAs by cells, 4T1 cells were seeded in 6 well plates at 1×10^5 cells per well and incubated for 2 h, 6 h and 24 h. After the spent medium was replaced with fresh one, cells were treated by Ppa and SSAs at an equivalent concentration of 1 μg Ppa mL-1 for pre-specified times. Cells were then washed with PBS twice, harvested, and suspended in 100 μL of PBS for flow cytometer analyses. 20,000 events were collected and Flowjo software was used for generating each histogram.
For TEM, 4T1 cells cultured in 6 cm dishes were incubated with Ppa and SSAs. […]

4T1 breast tumors = assay: In vivo / ex vivo fluorescence imaging and tumor retention; parameters: species or system mouse; conditions: BALB/c nude mice with 4T1 tumors, i.v. 5 mg Ppa kg-1, in vivo fluorescence imaging up to 14 d, n = 3
Excerpt: Where AS is the absorbance of the sample, A100 is the absorbance of lysed erythrocytes in H2O (a positive control), and A0 is the absorbance of 0% hemolysis in PBS (a negative control).
1.3.12 Skin photosensitization
The backs of healthy BALB/c mice were depilated 3 days before treatment to ensure that all injures had recovered. The shaved mice were randomly divided into 4 groups: (a) SSAs + laser irradiation; (b) Ppa + laser irradiation; (c) laser irradiation; (d) control (without any treatment). The dose of Ppa was 5 mg Ppa kg-1. Right after administration, the anesthetized mice were irradiated by a 660 nm laser (0.26 W cm-2, […], 108 J cm-2). […] The degree of skin response was examined and scored according to Table S5, and Paraffin sections of the skin were stained with hematoxylin and eosin (H&E) according to the manufacturer's instructions.[3] […]
Plasma was diluted to 50-fold with DMSO for fluorescent measurements using a BioTek plate reader. The pharmacokinetic parameters were calculated using a two-compartment model by WinNonlin 5.2 software.
1.3.14 In vivo fluorescence imaging and biodistribution […]
Fluorescence signals were detected at 1 h, 3 h, 12h, 24 h, 2 d, 3 d, 5 d, 7 d, 9 d, 11 d […]
and 14 d post-intravenous injection by a small-animal in vivo fluorescence imaging system (CRi Maestro EX, USA) with excitation at […]. […]

4T1 cells [2] = assay: Cytotoxicity, CCK-8 assay, 4T1; format: cell-based, mouse
Experimental: The CCK-8 assay was used to examine the photodynamic therapeutic effect of SSAs on cell viability against three cell lines. 4×103 4T1 cells per well were seeded in a 96-well plate, and then incubated overnight. The cells were treated with different concentrations of Ppa and SSAs at an equivalent Ppa dose. After 24 h incubation, the medium was replaced with fresh one, and the wells were irradiated using a 660 nm laser with 1 J cm−2. After 24 h, the spent media was replaced and the cell viability was assessed using the CCK-8 reagent. The absorbance at […] of each well was recorded on a microplate reader. Untreated cells were served as a control. Results were presented as the average cell viability by following the manufacturer’s instruction. IC50 values were calculated by using nonlinear regression in software Graphpad Prism7. The cytotoxicity of SSAs and Ppa with or without laser against A549 cell line was also measured through the same procedure.
The cytotoxicity of SSAs and PDP without laser irradiation was also measured by […]

Persistence of the fluorescence signal in tumors (4T1 breast tumors): disappear on day 3 after injection
SMILES: C=Cc1c(C)c2cc3nc(c4c5[nH]c(cc6nc(cc1[nH]2)C(C)=C6CC)c(C)c5C(=O)C4)[C@@H](CCC(=O)O)[C@@H]3C [Ppa, pyropheophorbide a]
Cellular uptake (4T1 cells [1]): better uptake efficiency compared with SSAs
Cytotoxicity with laser irradiation (4T1 cells [2]; 24 h incubation, 660 nm laser, CCK-8, n = 3): notable cytotoxicity
Concentration above which very cytotoxic without irradiation (4T1 cells [2]; no light, CCK-8): higher than 1 µg mL^−1

From publication PMC8596125, “Self‐Stabilized Supramolecular Assemblies Constructed from PEGylated Dendritic Peptide Conjugate for Augmenting Tumor Retention and Therapy” (Advanced Science, 2021)
